Patent US12692223B2, “Phenyl-sulfamoyl-benzoic acid derivatives as ERAP1-modulators” (GREY WOLF THERAPEUTICS LIMITED, priority 2021, dated 2026)

Biological target: T1, ERAP1 (Homo sapiens, UniProt Q9NZ08)
T1 construct: Purified ERAP1(37-941)-10His (ERAP1)
Experiment: ERAP1 mediated hydrolysis of an amide substrate measured in a biochemical system (10-mer inhibition assay)
Settings: purified ERAP1(37-941)-10His; 10-mer substrate; 23° C. for 1 h; excitation 279 nm, emission 355 nm; read-out: IC50 vs Decapeptide WRVYEKC(Dnp)ALK-acid (where Dnp is Dinitrophenyl maleimide) (10-mer)
Summary of the method: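 Purified ERAP1(37-941)-10His in 25 mM Bis-tris propane, 0.05% HPMC, pH 7.75, with compound, then 100 μM 10-mer WRVYEKC(Dnp)ALK or 240 μM L-AMC added (stock concentrations before 1:1 mixing), 1 h at 23 °C. Fluorescence read at ex 279/em 355 nm (10-mer) or ex 365/em 442 nm (L-AMC); IC50 from 4-parameter fit.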

T1 sequence (Q9NZ08 37-941): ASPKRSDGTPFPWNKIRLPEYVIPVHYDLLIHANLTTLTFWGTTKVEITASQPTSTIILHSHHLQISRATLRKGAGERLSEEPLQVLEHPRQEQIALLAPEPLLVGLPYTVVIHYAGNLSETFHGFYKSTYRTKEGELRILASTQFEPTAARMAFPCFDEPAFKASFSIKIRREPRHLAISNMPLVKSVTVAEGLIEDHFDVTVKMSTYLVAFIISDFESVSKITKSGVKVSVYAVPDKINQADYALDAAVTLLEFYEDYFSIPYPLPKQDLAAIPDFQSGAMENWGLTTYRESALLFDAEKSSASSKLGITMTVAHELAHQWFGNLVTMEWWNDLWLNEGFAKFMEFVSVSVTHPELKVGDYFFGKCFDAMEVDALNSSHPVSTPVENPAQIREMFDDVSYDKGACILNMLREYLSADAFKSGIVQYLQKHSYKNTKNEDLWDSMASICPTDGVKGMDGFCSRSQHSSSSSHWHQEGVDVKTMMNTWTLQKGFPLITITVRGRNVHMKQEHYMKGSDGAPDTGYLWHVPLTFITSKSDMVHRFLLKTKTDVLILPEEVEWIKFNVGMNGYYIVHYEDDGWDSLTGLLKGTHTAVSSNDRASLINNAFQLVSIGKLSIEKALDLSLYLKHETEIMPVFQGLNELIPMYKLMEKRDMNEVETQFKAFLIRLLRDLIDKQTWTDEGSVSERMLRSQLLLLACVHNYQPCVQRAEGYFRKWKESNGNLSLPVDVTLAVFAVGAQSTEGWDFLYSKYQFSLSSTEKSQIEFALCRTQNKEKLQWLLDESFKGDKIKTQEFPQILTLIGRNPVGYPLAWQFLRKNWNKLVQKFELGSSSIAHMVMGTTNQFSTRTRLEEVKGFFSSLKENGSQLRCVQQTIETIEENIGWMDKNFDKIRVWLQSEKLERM

Row | SMILES | IC50 [nM]
1 | Cc1oncc1-c1cc(NS(=O)(=O)c2cc(C(=O)O)ccc2C2CC2)c(OC2CCCC2)cc1Cl [Example 25, 3-(N-(4-chloro-2-(cyclopentyloxy)−5-(5-methylisoxazol-4-yl)phenyl)sulfamoyl)-4-cyclopropylbenzoic acid] | < 1
2 | Cc1cc(C2CC2)c(S(=O)(=O)Nc2cc(C#N)c(Cl)cc2OC2CCCC2)cc1C(=O)O [Example 26, 5-(N-(4-chloro-5-cyano-2-(cyclopentyloxy)phenyl)sulfamoyl)-4-cyclopropyl-2-methylbenzoic acid] | 1 to 5
3 | N#Cc1cc(NS(=O)(=O)c2cc(C(=O)O)ccc2C2CC2)c(OC2CCC23COC3)cc1Cl (stereo not shown) [Example 29, 3-(N-(2-((2-oxaspiro[3.3]heptan-5-yl)oxy)-4-chloro-5-cyanophenyl)sulfamoyl)-4-cyclopropylbenzoic acid] | < 1
4 | C#CC1(Oc2cc(Cl)c(C#N)cc2NS(=O)(=O)c2cc(C(=O)O)ccc2C2CC2)CCCC1 [Example 30, 3-(N-(4-chloro-5-cyano-2-((1-ethynylcyclopentyl)oxy)phenyl)sulfamoyl)-4-cyclopropylbenzoic acid] | 1 to 5
5 | CC1(C)CC(Oc2cc(Cl)c(C#N)cc2NS(=O)(=O)c2cc(C(=O)O)ccc2C2CC2)C1 [Example 33, 3-(N-(4-chloro-5-cyano-2-(3,3-dimethylcyclobutoxy)phenyl)sulfamoyl)-4-cyclopropylbenzoic acid] | < 1
6 | N#Cc1cc(NS(=O)(=O)c2cc(C(=O)O)ccc2C2CC2)c(O[C@H]2C[C@H](C(F)(F)F)C2)cc1Cl [Example 40, 3-(N-(4-chloro-5-cyano-2-((trans)−3-(trifluoromethyl)cyclobutoxy)phenyl)sulfamoyl)-4-cyclopropylbenzoic acid] | 1 to 5
7 | N#Cc1cc(NS(=O)(=O)c2cc(C(=O)O)ccc2C2CC2)c(O[C@@H]2C[C@@H]3C[C@@H]3C2)cc1Cl [Example 41, Cis-3-(N-(2-(bicyclo[3.1.0]hexan-3-yloxy)− 4-chloro-5-cyanophenyl)sulfamoyl)-4-cyclopropylbenzoic acid] | < 1
8 | N#Cc1cc(NS(=O)(=O)c2cc(C(=O)O)ccc2C2CC2)c(O[C@@H]2CCOC2)cc1Cl [Example 48, (R)-3-(N-(4-chloro-5-cyano-2-((tetrahydrofuran-3-yl)oxy)phenyl)sulfamoyl)-4-cyclopropylbenzoic acid] | < 1
9 | N#Cc1cc(NS(=O)(=O)c2cc(C(=O)O)ccc2C2CC2)c(O[C@H]2CCOC2)cc1Cl [Example 49, (S)-3-(N-(4-chloro-5-cyano-2-((tetrahydrofuran-3-yl)oxy)phenyl)sulfamoyl)-4-cyclopropylbenzoic acid] | 1 to 5
10 | O=C(O)c1ccc(C2CC2)c(S(=O)(=O)Nc2cc(-c3ccns3)c(Cl)cc2OC2CC(F)(F)C2)c1 [Example 50, 3-(N-(4-chloro-2-(3,3-difluorocyclobutoxy)-5-(isothiazol-5-yl)phenyl)sulfamoyl)-4-cyclopropylbenzoic acid] | < 1
11 | O=C(O)c1ccc(C2CC2)c(S(=O)(=O)Nc2cc(-c3ccns3)c(Cl)cc2OC2CCC2)c1 [Example 51, 3-(N-(4-chloro-2-cyclobutoxy-5-(isothiazol-5-yl)phenyl)sulfamoyl)-4-cyclopropylbenzoic acid] | < 1
12 | N#Cc1cc(NS(=O)(=O)c2cc(C(=O)O)ccc2C2CC2)c(O[C@H]2C[C@@H](C#N)C2)cc1Cl [Example 53, 3-(N-(4-chloro-5-cyano-2-(cis-3-cyanocyclobutoxy)phenyl)sulfamoyl)-4-cyclopropylbenzoic acid] | 1 to 5
13 | C#CC1(Oc2cc(Cl)c(C#N)cc2NS(=O)(=O)c2cc(C(=O)O)ccc2C2CC2)CCC1 [Example 54, 3-(N-(4-chloro-5-cyano-2-(1-ethynylcyclobutoxy)phenyl)sulfamoyl)-4-cyclopropylbenzoic acid] | 1 to 5
14 | N#Cc1cc(NS(=O)(=O)c2cc(C(=O)O)ccc2C2CC2)c(O[C@H]2C[C@H](C#N)C2)cc1Cl [Example 55, 3-(N-(4-chloro-5-cyano-2-(trans-3-cyanocyclobutoxy)phenyl)sulfamoyl)-4-cyclopropylbenzoic acid] | 1 to 5
15 | CC1(C)CCC[C@@H]1Oc1cc(Cl)c(C#N)cc1NS(=O)(=O)c1cc(C(=O)O)ccc1C1CC1 [Example 57, (S)−3-(N-(4-chloro-5-cyano-2-((2,2-dimethylcyclopentyl)oxy)phenyl)sulfamoyl)-4-cyclopropylbenzoic acid] | < 1

Next, values leading:

Row | IC50 [nM] | SMILES
16 | < 1 | CC1(COc2cc(Cl)c(C#N)cc2NS(=O)(=O)c2cc(C(=O)O)ccc2C2CC2)CCC1 [Example 27, 3-(N-(4-chloro-5-cyano-2-((1-methylcyclobutyl)methoxy)phenyl)sulfamoyl)-4-cyclopropylbenzoic acid]
17 | 1 to 5 | N#Cc1cc(NS(=O)(=O)c2cc(C(=O)O)ccc2C2CC2)c(OCC2CCOC2)cc1Cl (stereo not shown) [Example 28, 3-(N-(4-chloro-5-cyano-2-((tetrahydrofuran-3-yl)methoxy)phenyl)sulfamoyl)-4-cyclopropylbenzoic acid]
18 | 1 to 5 | N#Cc1cc(NS(=O)(=O)c2cc(C(=O)O)ccc2C2CC2)c(OCC2CC(F)(F)C2)cc1Cl [Example 31, 3-(N-(4-chloro-5-cyano-2-((3,3-difluorocyclobutyl)methoxy)phenyl)sulfamoyl)-4-cyclopropylbenzoic acid]
19 | 1 to 5 | CC1(COc2cc(Cl)c(C#N)cc2NS(=O)(=O)c2cc(C(=O)O)ccc2C2CC2)COC1 [Example 32, 3-(N-(4-chloro-5-cyano-2-((3-methyloxetan-3-yl)methoxy)phenyl)sulfamoyl)-4-cyclopropylbenzoic acid]
20 | < 1 | N#Cc1cc(NS(=O)(=O)c2cc(C(=O)O)ccc2C2CC2)c(OC2CC3(CC3)C2)cc1Cl [Example 34, 3-(N-(4-chloro-5-cyano-2-(spiro[2.3]hexan-5-yloxy)phenyl)sulfamoyl)-4-cyclopropylbenzoic acid]
21 | < 1 | N#Cc1cc(NS(=O)(=O)c2cc(C(=O)O)ccc2C2CC2)c(OCC2CCC2)cc1Cl [Example 35, 3-(N-(4-chloro-5-cyano-2-(cyclobutylmethoxy)phenyl)sulfamoyl)-4-cyclopropylbenzoic acid]
22 | 1 to 5 | N#Cc1cc(NS(=O)(=O)c2cc(C(=O)O)ccc2C2CC2)c(OCC2COC2)cc1Cl [Example 36, 3-(N-(4-chloro-5-cyano-2-(oxetan-3-ylmethoxy)phenyl)sulfamoyl)-4-cyclopropylbenzoic acid]
23 | 1 to 5 | N#Cc1cc(NS(=O)(=O)c2cc(C(=O)O)ccc2C2CC2)c(OCC2(F)COC2)cc1Cl [Example 37, 3-(N-(4-chloro-5-cyano-2-((3-fluorooxetan-3-yl)methoxy)phenyl)sulfamoyl)-4-cyclopropylbenzoic acid]
24 | > 5 | CN1CC(COc2cc(Cl)c(C#N)cc2NS(=O)(=O)c2cc(C(=O)O)ccc2C2CC2)C1 [Example 38, 3-(N-(4-chloro-5-cyano-2-((1-methylazetidin-3-yl)methoxy)phenyl)sulfamoyl)-4-cyclopropylbenzoic acid]
25 | 1 to 5 | N#Cc1cc(NS(=O)(=O)c2cc(C(=O)O)ccc2C2CC2)c(OC2CC3(CCC3)C2)cc1Cl [Example 39, 3-(N-(4-chloro-5-cyano-2-(spiro[3.3]heptan-2-yloxy)phenyl)sulfamoyl)-4-cyclopropylbenzoic acid]
26 | < 1 | CC(Oc1cc(Cl)c(C#N)cc1NS(=O)(=O)c1cc(C(=O)O)ccc1C1CC1)C1CCC1 (stereo not shown) [Example 42, 3-(N-(4-chloro-5-cyano-2-(1-cyclobutylethoxy)phenyl)sulfamoyl)-4-cyclopropylbenzoic acid]
27 | > 5 | N#Cc1cc(NS(=O)(=O)c2cc(C(=O)O)ccc2C2CC2)c(OCC2CNC2)cc1Cl [Example 43, 3-(N-(2-(azetidin-3-ylmethoxy)-4-chloro-5-cyanophenyl)sulfamoyl)-4-cyclopropylbenzoic acid]
28 | < 1 | N#Cc1cc(NS(=O)(=O)c2cc(C(=O)O)ccc2C2CC2)c(OCC2CCCC2)cc1Cl [Example 44, 3-(N-(4-chloro-5-cyano-2-(cyclopentylmethoxy)phenyl)sulfamoyl)-4-cyclopropylbenzoic acid]
29 | 1 to 5 | CC(Oc1cc(Cl)c(C#N)cc1NS(=O)(=O)c1cc(C(=O)O)ccc1C1CC1)C1COC1 (stereo not shown) [Example 45, 3-(N-(4-chloro-5-cyano-2-(1-(oxetan-3-yl)ethoxy)phenyl)sulfamoyl)-4-cyclopropylbenzoic acid]
30 | 1 to 5 | CO[C@H]1C[C@H](COc2cc(Cl)c(C#N)cc2NS(=O)(=O)c2cc(C(=O)O)ccc2C2CC2)C1 [Example 46, 3-(N-(4-chloro-5-cyano-2-((trans-3-methoxycyclobutyl)methoxy)phenyl)sulfamoyl)-4-cyclopropylbenzoic acid]
31 | < 1 | CO[C@H]1C[C@@H](COc2cc(Cl)c(C#N)cc2NS(=O)(=O)c2cc(C(=O)O)ccc2C2CC2)C1 [Example 47, 3-(N-(4-chloro-5-cyano-2-((cis-3-methoxycyclobutyl)methoxy)phenyl)sulfamoyl)-4-cyclopropylbenzoic acid]
32 | > 5 | N#Cc1cc(NS(=O)(=O)c2cc(C(=O)O)ccc2C2CC2)c(OC2CC3(COC3)C2)cc1Cl [Example 52, 3-(N-(2-((2-oxaspiro[3.3]heptan-6-yl)oxy)-4-chloro-5-cyanophenyl)sulfamoyl)-4-cyclopropylbenzoic acid]
33 | < 1 | N#Cc1cc(NS(=O)(=O)c2cc(C(=O)O)ccc2C2CC2)c(OC2CCC23CC3)cc1Cl (stereo not shown) [Example 56, 3-(N-(4-chloro-5-cyano-2-(spiro[2.3]hexan-4-yloxy)phenyl)sulfamoyl)-4-cyclopropylbenzoic acid]
34 | < 1 | N#Cc1cc(NS(=O)(=O)c2cc(C(=O)O)ccc2C2CC2)c(OCC2(F)CCC2)cc1Cl [Example 58, 3-(N-(4-chloro-5-cyano-2-((1-fluorocyclobutyl)methoxy)phenyl)sulfamoyl)-4-cyclopropylbenzoic acid]
